Test results from ChEMBL document CHEMBL1909046, “DrugMatrix in vitro pharmacology data”.

How the values were obtained:
[1] = biological target: T1, Alpha-1A adrenergic receptor (Rattus norvegicus, UniProt P43140); test: DRUGMATRIX: Alpha-1A adrenergic receptor radioligand binding (ligand: prazosin); type: cell membranes, Wistar, Submaxillary gland, Membrane; conditions: Not Active = under 50% inhibition at 10 µM
T1 sequence (P43140 whole entry): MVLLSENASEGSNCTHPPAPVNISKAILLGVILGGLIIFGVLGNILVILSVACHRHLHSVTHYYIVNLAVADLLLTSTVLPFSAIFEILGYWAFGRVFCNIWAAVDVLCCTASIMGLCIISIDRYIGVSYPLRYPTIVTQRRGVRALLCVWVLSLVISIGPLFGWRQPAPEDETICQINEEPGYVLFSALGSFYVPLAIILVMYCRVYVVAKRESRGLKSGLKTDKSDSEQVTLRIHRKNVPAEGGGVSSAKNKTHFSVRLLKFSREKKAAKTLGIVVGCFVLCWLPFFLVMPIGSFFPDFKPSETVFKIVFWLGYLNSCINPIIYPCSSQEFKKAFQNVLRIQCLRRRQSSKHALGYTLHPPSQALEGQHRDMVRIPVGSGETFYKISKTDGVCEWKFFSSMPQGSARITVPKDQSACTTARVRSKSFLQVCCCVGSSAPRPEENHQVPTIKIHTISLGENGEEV

[2] = DRUGMATRIX: beta-Lactamase enzyme inhibition (substrate: Nitrocefin); design: species or system Bacillus cereus; conditions: Not Active = under 50% inhibition at 10 µM
[3] = DRUGMATRIX: GABAA, Chloride Channel, TBOB radioligand binding (ligand: [3H] TBOB); type: cell membranes, Rattus norvegicus, Wistar, Cerebral cortex, Membrane; conditions: Not Active = under 50% inhibition at 10 µM
[4] = biological target: T2, Polyunsaturated fatty acid lipoxygenase ALOX15 (Oryctolagus cuniculus, UniProt P12530); test: biochemical; type: tissue-based, Reticulocytes; conditions: reticulocytes;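 further: inhibition of 15-lipoxygenase enzyme activity measured with linoleic acid as the substrate; in other assays of this panel Not Active means under 50% inhibition at 10 µM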
T2 sequence (P12530 whole entry): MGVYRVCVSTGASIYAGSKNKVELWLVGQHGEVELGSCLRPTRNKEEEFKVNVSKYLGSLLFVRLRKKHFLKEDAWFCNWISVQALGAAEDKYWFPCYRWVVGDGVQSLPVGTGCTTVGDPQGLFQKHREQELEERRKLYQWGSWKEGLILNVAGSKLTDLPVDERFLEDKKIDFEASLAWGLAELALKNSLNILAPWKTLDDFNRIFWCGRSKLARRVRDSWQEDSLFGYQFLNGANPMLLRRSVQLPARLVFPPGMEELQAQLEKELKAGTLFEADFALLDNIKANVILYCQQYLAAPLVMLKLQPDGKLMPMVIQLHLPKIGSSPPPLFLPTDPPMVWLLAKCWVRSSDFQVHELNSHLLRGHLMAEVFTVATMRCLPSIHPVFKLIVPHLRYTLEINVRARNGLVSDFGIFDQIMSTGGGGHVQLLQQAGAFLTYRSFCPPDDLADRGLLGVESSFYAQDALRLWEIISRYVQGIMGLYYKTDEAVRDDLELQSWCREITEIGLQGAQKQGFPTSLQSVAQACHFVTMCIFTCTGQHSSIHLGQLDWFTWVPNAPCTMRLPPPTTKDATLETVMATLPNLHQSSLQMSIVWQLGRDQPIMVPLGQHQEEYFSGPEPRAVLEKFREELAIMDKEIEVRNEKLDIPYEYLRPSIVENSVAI

[5] = biological target: T3, Muscarinic acetylcholine receptor M5 (Homo sapiens, UniProt P08912); type: cell membranes, CHO-K1, Membrane; conditions: cho-k1; further: in other assays of this panel Not Active means under 50% inhibition at 10 µM
T3 sequence (P08912 whole entry): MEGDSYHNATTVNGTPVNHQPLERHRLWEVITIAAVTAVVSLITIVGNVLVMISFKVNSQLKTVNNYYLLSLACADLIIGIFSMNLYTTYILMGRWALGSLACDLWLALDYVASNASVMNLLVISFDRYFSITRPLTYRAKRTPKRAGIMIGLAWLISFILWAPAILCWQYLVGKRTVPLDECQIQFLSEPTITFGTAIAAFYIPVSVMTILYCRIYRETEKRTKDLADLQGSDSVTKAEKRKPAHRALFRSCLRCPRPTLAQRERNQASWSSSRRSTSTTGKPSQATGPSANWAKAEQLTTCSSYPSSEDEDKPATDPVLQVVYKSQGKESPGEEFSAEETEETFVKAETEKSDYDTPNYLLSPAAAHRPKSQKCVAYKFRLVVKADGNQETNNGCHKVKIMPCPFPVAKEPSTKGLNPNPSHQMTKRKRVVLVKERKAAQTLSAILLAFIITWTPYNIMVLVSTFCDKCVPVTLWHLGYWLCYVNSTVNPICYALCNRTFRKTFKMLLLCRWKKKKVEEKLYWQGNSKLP

[6] = biological target: Mitogen-activated protein kinase 1 (Homo sapiens, UniProt P28482); test: DRUGMATRIX: Protein Serine/Threonine Kinase, ERK2 enzyme inhibition (substrate: Myelin Basic Protein); design: species or system Escherichia coli; conditions: Not Active = under 50% inhibition at 10 µM
Sequence of Mitogen-activated protein kinase 1 (P28482 whole entry): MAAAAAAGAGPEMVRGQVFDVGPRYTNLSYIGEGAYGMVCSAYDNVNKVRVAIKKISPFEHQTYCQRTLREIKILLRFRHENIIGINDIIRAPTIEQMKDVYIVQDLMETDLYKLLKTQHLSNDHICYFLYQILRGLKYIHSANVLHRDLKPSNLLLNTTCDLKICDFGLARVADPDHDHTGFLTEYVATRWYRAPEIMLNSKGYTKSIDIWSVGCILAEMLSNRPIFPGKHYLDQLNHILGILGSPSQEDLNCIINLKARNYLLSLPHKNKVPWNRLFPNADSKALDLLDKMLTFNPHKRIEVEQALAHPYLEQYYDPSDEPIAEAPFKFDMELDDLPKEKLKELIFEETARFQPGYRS

OC[C@H]1O[C@@H]2O[C@H]3[C@H](O)[C@@H](O)[C@@H](O[C@H]4[C@H](O)[C@@H](O)[C@@H](O[C@H]5[C@H](O)[C@@H](O)[C@@H](O[C@H]6[C@H](O)[C@@H](O)[C@@H](O[C@H]7[C@H](O)[C@@H](O)[C@@H](O[C@H]8[C@H](O)[C@@H](O)[C@@H](O[C@H]1[C@H](O)[C@H]2O)O[C@@H]8CO)O[C@@H]7CO)O[C@@H]6CO)O[C@@H]5CO)O[C@@H]4CO)O[C@@H]3CO [BETADEX]
Not Active: IC50 [1] | IC50 [2] | Ki [2] | IC50 [3] | Ki [3] | IC50 [4] | IC50 [5] | IC50 [6]

c1ccc(Cn2ccnc2)cc1
Not Active: IC50 [1] | IC50 [2] | Ki [2] | IC50 [3] | Ki [3] | IC50 [4] | IC50 [5] | IC50 [6]

C=CCN1CC[C@]23c4c5ccc(O)c4O[C@H]2/C(=N/N=C2\CC[C@@]4(O)[C@H]6Cc7ccc(O)c8c7[C@@]4(CCN6CC=C)[C@H]2O8)CC[C@@]3(O)[C@H]1C5 [NALOXONAZINE]
Not Active: IC50 [1] | IC50 [2] | Ki [2] | IC50 [3] | Ki [3] | IC50 [4] | IC50 [5] | IC50 [6]

CCCCCCNC(=O)n1cc(F)c(=O)[nH]c1=O [CARMOFUR]
Not Active: IC50 [1] | IC50 [2] | Ki [2] | IC50 [3] | Ki [3] | IC50 [4] | IC50 [5] | IC50 [6]

OC[C@H]1O[C@@H]2O[C@H]3[C@H](O)[C@@H](O)[C@@H](O[C@H]4[C@H](O)[C@@H](O)[C@@H](O[C@H]5[C@H](O)[C@@H](O)[C@@H](O[C@H]6[C@H](O)[C@@H](O)[C@@H](O[C@H]7[C@H](O)[C@@H](O)[C@@H](O[C@H]1[C@H](O)[C@H]2O)O[C@@H]7CO)O[C@@H]6CO)O[C@@H]5CO)O[C@@H]4CO)O[C@@H]3CO [ALFADEX]
Not Active: IC50 [1] | IC50 [2] | Ki [2] | IC50 [3] | Ki [3] | IC50 [4] | IC50 [5] | IC50 [6]

CC(C)NCC(O)COc1ccc(CC(N)=O)cc1 (stereo not drawn) [ATENOLOL]
Not Active: IC50 [1] | IC50 [2] | Ki [2] | IC50 [3] | Ki [3] | IC50 [4] | IC50 [5] | IC50 [6]
